# Values quoted from earlier work in patent publication US20080160065A1 (priority 2006, published 2008).
# Read-outs that look alike come from different tables or passages of the source.
# Settings: injected intramuscularly
structure (smiles),measurement,setting,value
CCC[C@@H]1C[C@@H](C(=O)N[C@@H]([C@H]2O[C@H](SC)[C@H](O)[C@@H](O)[C@H]2O)[C@H](C)Cl)N(C)C1 [clindamycin],time to peak plasma concentration,adults,2 h
same,time to peak plasma concentration,children,1 h
